Read-outs that look alike come from different tables or passages of the source.
Tests used:
carrageenan edema = assay: inhibition test of carrageenan edema employing a foot-pad edema method; type: in vivo, male Wister rats; conditions: for ED50: Rattus norvegicus, read-out: ED50 for inhibition for carrageenan edema
Excerpt: Anti-inflammatory action was investigated according to the method of Winter et al [cf. Pro. Soc. Exp. Biol. Med., 111, 544 (1962)] by the inhibition test of carrageenan edema employing a foot-pad edema method using carrageenan as an irritating agent and male Wister rats weighing 130 to 170 g.

in vivo [1] = conditions: rat, po
Protocol: Gastrointestinal ulcer formation action, which is a principal side effect of an acid anti-inflammatory drug, was investigated according to the method of Okabe et al [cf. […] The compounds of the present invention, IM, DF and acemethacin were suspended in 5% Tween-80 solution and administered orally 1 ml/100 g body weight to the rats, respectively. At 6 hrs after the administration, the state of glandstomach was observed by means of a dissecting microscope whether the ulcer having a diameter more than 1 mm was generated or not.

[2] = Rate of hydrolysis in rat plasma; type: in vitro ADME; conditions: in 1 ml of plasma rat (37° C., incubation for 1 hr)
Protocol: **in 1 ml of plasma rat (37° C., incubation for 1 hr)

in vivo [3] = conditions: mouse, po
ultraviolet erythema = assay: inhibition action for ultraviolet erythema; type: in vivo, male Hartley guinea pigs; parameters: 2 hs after the irradiation, Average ± standard error / 3 hs after the irradiation, Average ± standard error / 5 hs after the irradiation, Average ± standard error: scale not given here; 2 hs after the irradiation, Rate for inhibition / 3 hs after the irradiation, Rate for inhibition / 5 hs after the irradiation, Rate for inhibition: unit not given here; conditions: for 2 hs after the irradiation, Average ± standard error / 2 hs after the irradiation, Rate for inhibition: 2 hs after irradiation; for 2 hs after the irradiation, Average ± standard error / 2 hs after the irradiation, Rate for inhibition / 3 hs after the irradiation, Average ± standard error / 3 hs after the irradiation, Rate for inhibition / 5 hs after the irradiation, Average ± standard error / 5 hs after the irradiation, Rate for inhibition / duration of the pharmacological effect: guinea pigs; for 3 hs after the irradiation, Average ± standard error / 3 hs after the irradiation, Rate for inhibition: 3 hs after irradiation; for 5 hs after the irradiation, Average ± standard error / 5 hs after the irradiation, Rate for inhibition: 5 hs after irradiation; for duration of the pharmacological effect: ultraviolet erythema, oral
Protocol: With respect to Compounds 1 to 3, 15 and 21 which are especially useful as an anti-inflammatory drug, IM and DF, inhibition action for ultraviolet erythema was investigated according to the method of Adames et al [cf. Nature, London, 181, 773 (1958)] using guinea pigs as follows: Male Hartley guinea pigs weighing 250 to 350 g were shaved at their sides the day before and two hrs before the ultraviolet irradiation. To the guinea pigs were administered orally Compounds 1 to 3, 15 and 21, IM and DF in amounts as described in Table 2, respectively. To the control group was administered orally only Tween-80. At 1 hr after the time of administration, the guinea pigs were irradiated at their shaved sides by ultraviolet beam for 40 seconds.
The reaction of the ultraviolet erythema was evaluated at 2 hrs, 3 hrs and 5 hrs after irradiation according to the method of Winder et al [cf. Arch. Int. Pharmacodyn., 116, 261 (1958)]. […] Compounds 1 and 2 show a duration of the pharmacological effect over 5 hrs, contrary to that IM has a duration of 2 hrs.

[4] = potentiating effect on thiopental-induced sleep in mice; type: in vivo, male ddY mice; conditions: mouse, in vivo, po
Protocol: (§1) Effect on central nervous system, which is another side effect of IM, was investigated according to the potentiating effect on thiopental-induced sleep in mice as follows: Male ddY mice weighing 20 to 24 g were subjected to fasting for 15 hrs. […] At 30 mins after the administration, thiopental sodium was injected intravenously to each of the mice in an amount of 35 mg/l kg body weight, and then, the sleeping time was observed. When the sleeping time of the mice to which the Test Compound was administered was longer than 2 times that of the control to which only Tween-80 was administered, the given Test Compound was judged to be effective on thiopental-induced sleep potentiating effect.

thiopental-induced sleep = assay: as above; type: in vivo, male ddY mice
Protocol: as §1

[5] = male Wister rats, foot-pad edema

Structure (SMILES)	ED50 (carrageenan edema; [5])	TD50 at 6 h (in vivo [1])	metabolised at 1 h [2]	LD50 (in vivo [3])	2 hs after the irradiation, Average ± standard error (ultraviolet erythema; 3 mg/kg orally)	2 hs after the irradiation, Rate for inhibition (ultraviolet erythema; 3 mg/kg orally)	3 hs after the irradiation, Average ± standard error (ultraviolet erythema; 3 mg/kg orally)	3 hs after the irradiation, Rate for inhibition (ultraviolet erythema; 3 mg/kg orally)	5 hs after the irradiation, Average ± standard error (ultraviolet erythema; 3 mg/kg orally)	5 hs after the irradiation, Rate for inhibition (ultraviolet erythema; 3 mg/kg orally)	2 hs after the irradiation, Average ± standard error (ultraviolet erythema; 10 mg/kg orally)	2 hs after the irradiation, Rate for inhibition (ultraviolet erythema; 10 mg/kg orally)	3 hs after the irradiation, Average ± standard error (ultraviolet erythema; 10 mg/kg orally)	3 hs after the irradiation, Rate for inhibition (ultraviolet erythema; 10 mg/kg orally)	5 hs after the irradiation, Average ± standard error (ultraviolet erythema; 10 mg/kg orally)	5 hs after the irradiation, Rate for inhibition (ultraviolet erythema; 10 mg/kg orally)	other results
COc1ccc2c(c1)c(CC(=O)OC(C)OC(C)=O)c(C)n2C(=O)c1ccc(Cl)cc1 (centres unmarked) [Compound 8, 1-(Acetoxy)ethyl[1-(p-chlorobenzoyl)-5-methoxy-2-methyl-3-indolyl]acetate]	6 mg/kg	20 mg/kg	99.8%	65 mg/kg													
CC(C)=CC(=O)OCOC(=O)Cc1ccccc1Nc1c(Cl)cccc1Cl [Compound 14, 3,3-Dimethylacryloyloxymethyl-2-(2,6-dichloroanilino)phenylacetate]	< 30 mg/kg	30 mg/kg	83.4%	455 mg/kg													
CC=CC=CC(=O)OC(C)OC(=O)Cc1c(C)n(C(=O)c2ccc(Cl)cc2)c2ccc(OC)cc12 (centres unmarked) [Compound 12, 1-(2,4-Hexadienoyloxy)ethyl[1-(p-chlorobenzoyl)-5-methoxy-2-methyl-3-indolyl]acetate]	> 20 mg/kg	> 20 mg/kg	80.4%	640 mg/kg													
COc1ccc2c(c1)c(CC(=O)O)c(C)n2C(=O)c1ccc(Cl)cc1 [IM, indomethacin, reference compound]				31.5 mg/kg	2.17 ± 0.307	18.7	2.5 ± 0.224	11.7	2.83 ± 0.167	0	1.33 ± 0.217	50.2	2.83 ± 0.167	0	3.0 ± 0	0	duration of the pharmacological effect (ultraviolet erythema): 2 hrs; ED50 (carrageenan edema): 5.5 mg/kg; ED50 [4]: 205 mg/kg; TD50 at 6 h (in vivo [1]; in vivo): 8 mg/kg
O=C(O)Cc1ccccc1Nc1c(Cl)cccc1Cl [DF, diclofenac, reference compound]					1.17 ± 0.307	56.2	2.17 ± 0.401	23.3	2.67 ± 0.211	5.7	1.17 ± 0.307	56.2	2.50 ± 0.342	11.7	2.83 ± 0.167	0	ED50 (carrageenan edema): 15 mg/kg; potentiating effect on thiopental-induced sleep (in words) (thiopental-induced sleep; mice, oral): did not show the potentiating effect
CC=CC=CC(=O)OCCOC(=O)Cc1c(C)n(C(=O)c2ccc(Cl)cc2)c2ccc(OC)cc12 [Compound 6, 2-(2,4-Hexadienoyloxy)ethyl[1-(p-chlorobenzoyl)-5-methoxy-2-methyl-3-indolyl]acetate]	13 mg/kg	40 mg/kg	69%	85 mg/kg													
CC(C)=CC(=O)OC(C)OC(=O)Cc1ccccc1Nc1c(Cl)cccc1Cl (centres unmarked) [Compound 20, 1-(3,3-Dimethylacryloyloxy)ethyl-2-(2,6-dichloroanilino)phenylacetate]	20 mg/kg	30 mg/kg	80.3%	460 mg/kg													anti-inflammatory activity compared with DF (carrageenan edema; relative to DF): almost equal anti-inflammatory activity to DF
COc1ccc2c(c1)c(CC(=O)OCOC(=O)C=C(C)C)c(C)n2C(=O)c1ccc(Cl)cc1 [Compound 2, 3,3-Dimethylacryloyloxymethyl[1-(p-chlorobenzoyl)-5-methoxy-2-methyl-3-indolyl]acetate]	6 mg/kg	20 mg/kg	78%	67 mg/kg	1.83 ± 0.297	31.5	1.83 ± 0.207	35.3	2.0 ± 0.174	29.3	0.83 ± 0.241	68.9	0.83 ± 0.241	70.7	1.0 ± 0.369	64.7	duration of the pharmacological effect (ultraviolet erythema): over 5 hrs; anti-inflammatory activity compared with IM (carrageenan edema; relative to IM): equal anti-inflammatory activity to IM
C/C=C/C(=O)OC(C)OC(=O)Cc1c(C)n(C(=O)c2ccc(Cl)cc2)c2ccc(OC)cc12 (centres unmarked) [Compound 10, 1-(Crotonoyloxy)ethyl[1-(p-chlorobenzoyl)-5-methoxy-2-methyl-3-indolyl]acetate]	7 mg/kg	20 mg/kg	88.2%	65 mg/kg													potentiating effect on thiopental-induced sleep relative to IM (thiopental-induced sleep; mouse, in vivo): 1/2.5; ED50 [4]: 261 mg/kg
C/C=C/C(=O)OCOC(=O)Cc1ccccc1Nc1c(Cl)cccc1Cl [Compound 13, Crotonoyloxymethyl-2-(2,6-dichloroanilino)-phenylacetate]	< 30 mg/kg	30 mg/kg	89.7%	400 mg/kg													
CC=CC=CC(=O)OC(C)OC(=O)Cc1ccccc1Nc1c(Cl)cccc1Cl (centres unmarked) [Compound 21, 1-(2,4-Hexadienoyloxy)ethyl-2-(2,6-dichloroanilino)phenylacetate]	30 mg/kg	> 80 mg/kg	78.2%	790 mg/kg	1.33 ± 0.211	50.2	3.00 ± 0	0	3.00 ± 0	0	1.50 ± 0.224	43.8	2.50 ± 0.224	11.7	2.50 ± 0.224	11.7	inhibition effect for ultraviolet erythema compared with IM and DF (ultraviolet erythema; relative to IM and DF): equal inhibition effect for ultraviolet erythema to that of IM and DF
COc1ccc2c(c1)c(CC(=O)OCCOC(=O)C=C(C)CCC=C(C)C)c(C)n2C(=O)c1ccc(Cl)cc1 [Compound 7, 2-(3,7-Dimethyl-2,6-octadienoyloxy)ethyl[1-(p-chlorobenzoyl)-5-methoxy-2-methyl-3-indolyl]acetate]	> 20 mg/kg	> 20 mg/kg	60.5%	780 mg/kg													
